Experiments:
[1] = system: Staphylococcus aureus 6538; experiment: High resolution minimum inhibitory concentration (HRMIC) test vs S. aureus 6538; format: cell-based; details: M9GY medium, 96-well microtiter plate, 10^6 CFU/mL, 30° C. for 24 h; first well with no growth
Description: (§1) Several compounds of this invention were tested for biological activity in vitro against Escherichia coli 8739 and Staphylococcus aureus 6538 described below. The following test procedures were employed.
(§2) MIC Determination: The lowest concentration of test compound required to inhibit Escherichia coli 8739 and Staphylococcus aureus 6538 was determined by a high resolution minimum inhibitory concentration (HRMIC) test. Varying amounts of the test compounds were added to minimal salts glucose medium (Maniatis, T., Fritsch, E. F., Sambrook, J. 1982 Molecular Cloning, page 68) supplemented with 0.1% yeast extract (M9GY) in a 96-well microtiter plate. […] serial dilutions were performed on a Biomek 2000 Workstation to obtain a range of closely spaced concentrations of test compound as shown in FIG. 1. A cell suspension of inoculum, adjusted to provide 10^6 CFU/mL in each well, was added to the microtiter plate. Microtiter plates were incubated at 30° C. for 24 h and then were checked for the presence or absence of microbial growth in each well.

Escherichia coli 8739 = experiment: High resolution minimum inhibitory concentration (HRMIC) test vs E. coli 8739; format: cell-based; details: M9GY medium, 96-well microtiter plate, 10^6 CFU/mL, 30° C. for 24 h; first well with no growth
Description: as §1, §2

Row | Structure (SMILES) | MIC vs S. aureus 6538 Gram-positive [1] | melting point | MIC vs E. coli 8739 Gram-negative (Escherichia coli 8739)
1 | CCCCOC(=O)C(OC(=O)C(C)C)OC(=O)N1CCN(c2cc3c(cc2F)c(=O)c(C(=O)O)cn3CC)CC1 (centres unmarked) [Compound 8-1, 7-(4-[(Butoxycarbonyl)(2-methylpropanoyloxy)methoxycarbonyl]-1-piperazinyl)-1-ethyl-6-fluoro-1,4-dihydro-4-oxo-3-quinolinecarboxylic acid] | 0.06 ppm AI | 151.5 to 160 °C | 2.5 ppm AI
2 | CCn1cc(C(=O)O)c(=O)c2cc(F)c(N3CCN(C(=O)OC(OC(=O)c4ccccc4)C(=O)OC(C)C)CC3)cc21 (centres unmarked) [Compound 8-2, 7-(4-[(Isopropoxycarbonyl)(benzoyloxy)methoxycarbonyl]-1-piperazinyl)-1-ethyl-6-fluoro-1,4-dihydro-4-oxo-3-quinolinecarboxylic acid] | 0.45 ppm AI | 135 to 143 °C | 3 ppm AI
3 | CCCCCCCCCCCC(=O)OC(OC(=O)N1CCN(c2cc3c(cc2F)c(=O)c(C(=O)O)cn3CC)CC1)C(=O)OC(C)C (centres unmarked) [Compound 8-3, 7-(4-[(Isopropoxycarbonyl)(dodecanoyloxy)methoxycarbonyl]-1-piperazinyl)-1-ethyl-6-fluoro-1,4-dihydro-4-oxo-3-quinolinecarboxylic acid] | 4.5 ppm AI | 105.5 to 109.2 °C | 40 ppm AI
4 | CCn1cc(C(=O)O)c(=O)c2cc(F)c(N3CCN(C(=O)OC(OC(=O)C(C)c4ccc(CC(C)C)cc4)C(=O)OC(C)C)CC3)cc21 (centres unmarked) [Compound 8-4, 7-(4-[(2-[4-(2-Methylpropyl)phenyl]propanoyloxy)(isopropoxycarbonyl)methoxy-carbonyl]-1-piperazinyl)-1-ethyl-6-fluoro-1,4-dihydro-4-oxo-3-quinolinecarboxylic acid] | 0.7 ppm AI | 88 to 96.5 °C | >1000 ppm AI
5 | CCn1cc(C(=O)O)c(=O)c2cc(F)c(N3CCNCC3)cc21 [Norfloxacin, reference compound] | 0.9 ppm AI | – | 0.2 ppm AI

From patent US20040254182A1, “Enhanced propertied pharmaceuticals” (priority 2000, published 2004)
